Measurements reported in publication PMC9025336 (Antibiotics, 2022).
In brackets after ≈: the same amount, converted by molar mass. Peptide text beside a SMILES is read from it. * marks the point of attachment. Orn(α-tetramethylguanidino) = CN(C)C(=N[C@@H](CCCN)C(=O)*)N(C)C

Experiments:
[1] = test system: E. coli BL21 (DE3) sbmA::Tn10^Cm; assay type: cell-based, Escherichia coli
Protocol: The minimal inhibitory concentrations (MIC) were determined at least twice in triplicate using a liquid broth microdilution assay in sterile 96-well plates and a total volume of 100 μL per well. Aqueous peptide solutions were serially 2-fold diluted in 25% MHBII or 33% TSB medium in a volume of 50 µL. An overnight culture was diluted in 25% MHBII or 33% TSB medium to 1.5 × 10^7 CFU/mL, and an aliquot of 50 μL was added to each well. The final cell count in each well was 7.5 × 10^6 CFU/mL. The plates were incubated at 37 °C for 20 ± 2 h. The turbidity of each well was measured at a wavelength of 600 nm. The MIC was defined as the lowest peptide concentration where the turbidity was identical to medium only.
E. coli strain BL21(DE3) was randomly mutagenized by Tn10 insertion using the lambda phage lysate λNK1324 carrying a chloramphenicol resistance and grown on LB agar plates in the presence of chloramphenicol (15 µg/mL) at 30 °C overnight. The resistant colonies were transferred to 25% MHBII agar plates containing Api137 (32 or 64 µg/mL) and incubated again at 37 °C overnight. Genomic DNA was isolated by a Monarch® Genomic DNA purification kit (New England Biolabs, Frankfurt am Main, Germany) from the presumed double-resistant strains, and the sequences flanking the transposon insertion were determined by arbitrary primed PCR using arbitrary primer ARB6 and Tn10 transposon-specific primer IS10-R complementary to the IS10 element of Tn10 transposon. The first round of amplification included six cycles of denaturation (95 °C, 30 s), annealing (30 °C, 30 s), and extension (72 °C, 90 s), followed by 30 cycles of denaturation (95 °C, 30 s), annealing (45°C, 30 s), and extension (72 °C, 2 min), as well as a final extension (72 °C, 6 min). The second round of amplification used arbitrary primer ARB2 and primer IS10-R. The PCR consisted of 30 cycles of denaturation (95 °C, 30 s), annealing (52 °C, 30 s), and extension (72 °C, 2 min), followed by a final extension step (72 °C, 6 min). PCR products were purified with the NucleoSpin® Gel and a PCR cleanup kit (Macherey-Nagel, Düren, Germany) and sequenced using primer IS10-R (Eurofins MWG Operon, Ebersberg, Germany), and the corresponding protein was identified in a sequence database (UniProt and NCBI, 2021).

[2] = test system: 70S ribosome, ribosomal binding site of Api805; assay: Fluorescence polarization competition with cf-Api805; design: species or system Escherichia coli; settings: Figure S2, twice in triplicate
Protocol: Ki was determined for ribosome extracts using cf-labeled and unlabeled peptides in ribosome preparation buffer. Black 384-well plates were prepared as described above. Unlabeled peptides or antibiotics (20 μL, 656 μmol/L) were added and 2-fold serially diluted in 23 wells in ribosome preparation buffer. […] The fluorescence polarization was measured on a […] microplate reader in the top read position (λexc = 485 nm, λem = 535 nm) in triplicate on at least two different days. […] Inhibition constants, Ki, were calculated as described by Mathias and Jung. page 9: 140 140 120 120 100 100 80 80 60 60 40 40 […]. […]. […] 0 0 -20 -20 10 -2 1 10 2 10 4 10 6 10 -2 1 10 2 10 4 10 6 Pept ide Concent r at ion [ nM] Pept ide Concent r at ion [ nM] 140 140 120 120 100 100 80 80 60 60 40 40 20 Chlor […] ol vs. […] -20 -20 10 -2 1 10 2 10 4 10 6 10 -2 1 10 2 10 4 10 6 Ant ibiot ic Concent r at ion [ nM] Antibiotic Concentration [nM] 140 120 100 80 60 40 […] -20 10 -2 1 10 2 10 4 10 6 Ant ibiot ic Concent r at ion [ nM] Figure S2. […] tested as control in competition with Api137 or erythromycin. Experiments were done twice in triplicates. Error bars show the standard deviation of all six replicates. The horizontal dotted line separates positive and negative ranges on the Y-axis. - S9 - (also on this page, place not known: […]

CC[C@H](C)[C@H](NC(=O)[C@@H]1CCCN1C(=O)[C@H](CCCNC(=N)N)NC(=O)[C@H](CC(N)=O)NC(=O)[C@H](CC(N)=O)NC(=O)CN)C(=O)N[C@@H](Cc1ccc(O)cc1)C(=O)N[C@H](C(=O)N1CCC[C@H]1C(=O)N[C@@H](CCCNC(=N)N)C(=O)N1CCC[C@H]1C(=O)N[C@@H](CCCNC(=N)N)C(=O)N1CCC[C@H]1C(=O)N1CCC[C@H]1C(=O)N[C@@H](Cc1c[nH]cn1)C(=O)N1CCC[C@H]1C(=O)N[C@@H](CCCNC(=N)N)C(=O)N1CCC[C@H]1C(=O)N[C@H](C(=O)N[C@@H](CCCNC(=N)N)C(=O)N[C@H](C(=O)O)C(C)C)[C@@H](C)CC)[C@@H](C)CC [Api805] (H-GNNRPIYIPRPRPPHPRPIRV-OH; N-terminus assumed)
MIC in the E. coli BL21 sbmA::Tn10^Cm strain ([1]; medium not stated (Table 3: 25% MHBII and 33% TSB)): 128 µg/mL | inhibition of the binding of cf-labeled Api805 [2]: did not inhibit

CC[C@H](C)[C@H](NC(=O)[C@H](Cc1ccc(O)cc1)NC(=O)[C@@H](NC(=O)[C@@H]1CCCN1C(=O)[C@H](CCCNC(=N)N)NC(=O)[C@H](CC(N)=O)NC(=O)[C@H](CC(N)=O)NC(=O)[C@H](CCCN)N=C(N(C)C)N(C)C)C(C)C)C(=O)N1CCC[C@H]1C(=O)N[C@@H](CCCNC(=N)N)C(=O)N1CCC[C@H]1C(=O)N[C@@H](CCCNC(=N)N)C(=O)N1CCC[C@H]1C(=O)N1CCC[C@H]1C(=O)N[C@@H](Cc1c[nH]cn1)C(=O)N1CCC[C@H]1C(=O)N[C@@H](CCCNC(=N)N)C(=O)N[C@@H](CC(C)C)C(=O)O [Api137] ({Orn(α-tetramethylguanidino)}-NNRPVYIPRPRPPHPRL-OH)
MIC, 25% MHBII ([1]; BL21 (DE3) sbmA::Tn10^Cm, 25% MHBII containing IPTG (0.1 mmol/L)): 16 mg/L (≈ 6.98 µM) | MIC, 33% TSB ([1]; BL21 (DE3) sbmA::Tn10^Cm, 33% TSB containing IPTG (0.1 mmol/L)): 16 mg/L (≈ 6.98 µM) | inhibition of the binding of cf-labeled Api805 [2]: none inhibited
